According to US10525044B2, “Treatment for chemotherapy-induced peripheral neuropathy” (priority 2013, dated 2020):
“And” between values parts separate entries of the source, which are not always exact repeats. Equal entries are not always repeated. “Also recorded” adds a separate entry of the source.

Experiments:
[1] = system: rat, arterial occlusion; details: i.c.v., 50 μg per rat at 1 h after arterial occlusion; cited from earlier work
[2] = system: human lung cancer cell line H460; test: MTS assay in H460 cancer cells; type: cell-based
Procedure: (§1) Cancer Cell Culture. The mouse liver cancer cell line BNLT3 (gift of Dr. Jack Wands, Brown University) and the human lung cancer cell line H460 (ATCC) were seeded into 96-well plates at a density of 4,000 cells/well and cultured at 37° C., 5% CO2, in DMEM (11965, Gibco) supplemented with 10% fetal bovine serum, 20 mM HEPES, 1 mM sodium pyruvate, and […] gentamycin (all reagents came from Gibco).
(§2) Cell Insults and Treatments. Determination of concentration for each anticancer drug in our experiments was based on its reported concentration in human cerebral spinal fluid (CSF) in chemotherapy, literature report of its neurotoxicity in culture, and our preliminary in vitro experimental data. At 13 d.i.v., the neuronal cell cultures were insulted with 100 μM of MTX (M9929, Sigma), 25 μM of 5-FU (F6627, Sigma), or 3.5 μM of CDDP (sc-200896, Santa Cruz) for 3 days in absence or presence of PAN 811.Cl.H2O. For ROS examination, the neurons were insulted with both 100 μM of MTX and 25 μM of 5-FU by 15 d.i.v. PAN-811.Cl.H2O was added to cultures to final concentrations of 1.25, 2.5, 5, and 10 μM at the same time as addition of the anticancer drugs. For cancer cell lines, the cells were insulted by the second day of cell seeding with the same concentration of MTX, 5-FU, or CDDP as used in neuronal culture in the absence or presence of 10 μM PAN-811.Cl.H2O for another 3 days.
(§3) Quantitative Assays and Morphological Assessment. Cell membrane integrity and mitochondrial function of either neurons or cancer cells were measured with LDH and 3-(4,5-dimethylthiazol-2-yl)-5-(3-carboxymethoxyphenyl)-2-(4-sulfophenyl)-2H-tetrazolium [MTS] analyses, respectively. The latter has been used to quantify cell survival. For the LDH assay, a mixture of a 35 μL aliquot of culture supernatant and 17.5 μL of Mixed Substrate, Enzyme and Dye Solutions (Sigma) was incubated at room temperature (RT) for 30 minutes. For the MTS assay, 10 μL of MTS reagent (Promega) was added to a culture well containing neurons in 50 μL of medium. The preparations were incubated at 37° C. for 2 hours. The preparations for both assays were then spectrophotometrically measured at 490 nm using a 96-well plate reader (Mode 550, Bio-Rad). Neuronal cell death was morphologically determined based on the integrity of the cell soma and continuity of neuronal processes. The change in number of cancer cells was judged directly by cell density. Cells were photographed under an inverted phase contrast microscope (IX 70, Olympus) using 10× or 20× objective.
Data Analysis. Data were generated from 4-6 replicate wells, expressed as mean±standard deviation (SD), and statistically evaluated at a significance level of 1% with one factor ANOVA or Student's t-test by using software VASSARSTATS (http://vassarstats.net/) followed by the Tukey HSD test. Figure symbols are as follows: #, P<0.05, and ##, P<0.01, compared with control; *, P<0.05, and **, P<0.01, compared with the insulted group; §§, P<0.01, compared with PAN-811 treated group by Student's t-test.

[3] = system: mouse liver cancer cell line BNLT3; test: Cell density of BNLT3 cells (phase contrast); type: cell-based
Procedure: as §1, §2, §3

[4] = system: human lung cancer cell line H460; test: Cell density of H460 cells (phase contrast); type: cell-based
Procedure: as §1, §2, §3

[5] = 500 μM diphenylpicrylhydrazyl, cell free; cited from earlier work
[6] = system: middle cerebral artery occlusion (MCAo); details: cited from earlier work
[7] = 3.5 μM CDDP and 10 μM PAN-811, 3 days
[8] = 25 μM 5-FU and 10 μM PAN-811, 3 days
[9] = 100 μM MTX and 10 μM PAN-811, 3 days
[10] = each agent alone, 3 days: MTX 100 μM, 5-FU 25 μM, CDDP 3.5 μM, PAN-811 10 μM

## NC(=S)N/N=C/c1ncccc1N [PAN-811, 3-aminopyridine-2-carboxaldehyde thiosemicarbazone]
[1]
  reduction of infarct volume: 59%
[2]; 3.5 μM CDDP and 10 μM PAN-811
  interaction with CDDP on suppression of H460 growth: synergistic effect
[2]; [7]
  reduction of MTS reading, cotreatment with CDDP: 85%
[2]; 10 μM PAN-811
  inhibition of the effect of MTX, 5-FU, or CDDP on cell growth of H460 cells: did not show any inhibition
[2]; 25 μM 5-FU and 10 μM PAN-811
  interaction with 5-FU on suppression of H460 growth: synergistic effect
[2]; [8]
  reduction of MTS reading, cotreatment with 5-FU: 84%
[2]; [9]
  MTS reading, cotreatment with MTX: about the same as 10 μM PAN-811 alone
[2]; [10]
  reduction of MTS reading: 76% and 74% and 75%
[3]; [7]
  cell density, cotreatment with CDDP: significant reduction in the cell density
[3]; [8]
  cell number, cotreatment with 5-FU: significantly decreased the cell number
[3]; [9]
  cell density, cotreatment with MTX: cell density was also much lower than that in no-insult control
[3]; [10]
  cell density / cancer cell number: cell density was also much lower than that in no-insult control; also recorded: significant reduction in the cell density
[4]; [7]
  cell density, cotreatment with CDDP: greatly decreased the cell density
[4]; [8]
  cell density, cotreatment with 5-FU: robustly decreased the cell density
[4]; [9]
  cell density, cotreatment with MTX: robustly decreased the cell density
[4]; [10]
  cell density: robustly decreased the cell density; also recorded: greatly decreased the cell density
[5]
  reduction of stable free radical diphenylpicrylhydrazyl: 70%
[6]; PAN-811 treated groups collectively
  reduction of mortality: 44%
[6]; i.v., 2 mg/kg
  reduction in brain edema volume: 70%
[6]; single i.v. bolus, 2 mg/kg
  reduction of infarct volume, maximal protection: 50%
